According to patent publication US20100311107A1, “Ultra-High Throughput Screening of Natural Products” (priority 2004, published 2010):
Like-named read-outs stand apart in the source and are kept apart here.

Key:
Format in all cases: cell-based, Escherichia coli
[1] = tested on: E. coli screening strain CM166; parameters: unit not given here; conditions: Table 9, MHB medium
Description: (§1) The level of drug resistance of CM166 was estimated by MIC assay carried out in MHB liquid medium and the results were summarized in Table 9. CM166 is resistant to antibacterial agents whose resistant genes have been incorporated into the strain, but not to other antibacterial drugs whose resistant genes are not incorporated.

[2] = tested on: E. coli screening strain DR1234; parameters: unit not given here
Protocol: (§2) The screening strain, DR1234, was established after all desired drug-resistant genes listed in Table 5 had been delivered into the parent E. coli strain, MG1655, by methods described above. Its level of drug resistance was analyzed by the standard minimum inhibitory concentration (MIC) assay in MHB liquid medium (Chantot, et al., 1986, “Antibacterial activity of roxithromycin: a laboratory evaluation,” J. Antibiot, 39(5):660-8) and the result was summarized in Table 7.

[3] = tested on: E. coli screening strain CM242; parameters: unit not given here; conditions: second Table 12, MHB medium
Protocol: (§3) The level of drug resistance of these screening strains (both intermediates and finals) was evaluated by standard MIC assay in MHB liquid medium and the result of Strain CM242 is summarized in Table 12.

[4] = tested on: E. coli screening strain CM435; parameters: Minimal inhibitory concentrations (MIC90) CM435: unit not given here; conditions: for sensitivity of CM435 according to the MIC results: MHB liquid medium; for Minimal inhibitory concentrations (MIC90) CM435: Table 13, MHB medium
[5] = tested on: E. coli screening strain CM400; parameters: unit not given here; conditions: Table 13, MHB medium
Protocol: (§4) The level of drug resistance of screening strains CM400 and CM435 was evaluated by standard MIC assay in MHB liquid medium and the results are summarized in Table 13. According to the MIC results, CM435 is hypersensitive to Bleomycin, Daunorucibin, Coumermycin A1 and Erythromycin. Screening strain CM435 and others, which are hypersensitive to certain types of antimicrobial agents, are advantageous in detecting bioactive compounds with low concentration in the screening system.

[6] = tested on: E. coli MG1655; parameters: unit not given here
Protocol: as §2, §1
(§5) The level of drug-resistance of screening strain DR1212 was analyzed by standard MIC assay in MHB liquid medium and the result was summarized in Table 11. Similar to screening strains, DR1234 and CM166, DR1212 is also resistant to drugs whose resistant genes have been introduced.
as §3, §4

[7] = tested on: E. coli screening strain DR1212; parameters: unit not given here
Protocol: as §5

Row | Molecule | Minimal inhibitory concentrations (MIC90) CM166 [1] | Minimal inhibitory concentrations (MIC90) DR1234 ([2]; Table 7, MHB medium) | Minimal inhibitory concentrations (MIC90) CM242 [3] | sensitivity of CM435 according to the MIC results [4] | Minimal inhibitory concentrations (MIC90) CM435 [4] | Minimal inhibitory concentrations (MIC90) CM400 [5] | Minimal inhibitory concentrations (MIC90) MG1655 ([6]; Table 7, MHB medium) | Minimal inhibitory concentrations (MIC90) MG1655 ([6]; Table 9, MHB medium) | Minimal inhibitory concentrations (MIC90) MG1655 ([6]; Table 11, MHB medium) | Minimal inhibitory concentrations (MIC90) MG1655 ([6]; Table 13, MHB medium) | Minimal inhibitory concentrations (MIC90) MG1655 ([6]; second Table 12, MHB medium) | Minimal inhibitory concentrations (MIC90) DR1212 ([7]; Table 11, MHB medium) | Minimal inhibitory concentrations (MIC90) DR1234 [2] | Minimal inhibitory concentrations (MIC90) DR1212 [7]
1 | CC[C@H]1OC(=O)[C@H](C)[C@@H](O[C@H]2C[C@@](C)(OC)[C@@H](O)[C@H](C)O2)[C@H](C)[C@@H](O[C@@H]2O[C@H](C)C[C@H](N(C)C)[C@H]2O)[C@](C)(O)C[C@@H](C)C(=O)[C@H](C)[C@@H](O)[C@]1(C)O [Erythromycin] | 100 | 100 | 25 | hypersensitive | 4 | 64 | 25 | 25 | 25 | >64 | 25 | 50 |  | 
2 | O=C(N[C@H](CO)[C@H](O)c1ccc([N+](=O)[O-])cc1)C(Cl)Cl [Chloramphenicol] | 100 | 100 | 100 |  | >64 | >64 | 3.2 | 3.2 | 3.2 | 8 | 3.2 | 400 |  | 
3 | NC[C@H]1O[C@H](O[C@H]2[C@H](O)[C@@H](O[C@H]3O[C@H](CO)[C@@H](O)[C@H](N)[C@H]3O)[C@H](N)C[C@@H]2N)[C@H](O)[C@@H](O)[C@@H]1O [Kanamycin] | >400 |  | >400 |  | >64 | >64 |  |  |  |  |  |  | >400 | 400
4 | CN[C@@H]1[C@@H](O[C@H]2O[C@H](CO)[C@@H](N)[C@H](O)[C@H]2O)OC2C[C@@H](N)[C@@H](O[C@H]3[C@H](O)[C@@H](O)[C@H](N)C[C@@H]3N)OC2[C@@H]1O (some centres unmarked) [Apramycin] | 200 | 400 | 400 |  | >64 | 64 | 3.2-6.3 | 3.2-6.3 | 3.2-6.3 | 4 | 3.2-6.3 | 1.6 |  | 
5 | NC[C@H]1O[C@H](O[C@H]2[C@H](O)[C@@H](O[C@H]3O[C@H](CO)[C@@H](O)[C@H](N)[C@H]3O)[C@H](N)C[C@@H]2N)[C@H](N)C[C@@H]1O [Tobramycin] | >400 | 50 | 100 |  |  |  | 0.4 | 0.4 | 0.4 |  | 0.4 | 25 |  | 
6 | CO[C@H]1/C=C/O[C@@]2(C)Oc3c(C)c(O)c4c(O)c(cc(O)c4c3C2=O)NC(=O)/C(C)=C\C=C\[C@H](C)[C@H](O)[C@@H](C)[C@@H](O)[C@@H](C)[C@H](OC(C)=O)[C@@H]1C [Rifamycin] |  |  |  |  | 16 | >64 |  |  |  | 16 |  |  |  | 
7 | CCN[C@@H]1C[C@H](N)[C@@H](O[C@H]2OC(CN)=CC[C@H]2N)[C@H](O)[C@H]1O[C@H]1OC[C@](C)(O)[C@H](NC)[C@H]1O [Netilmycin] | 400 | 200 | 200 |  | 64 | >64 | 1.6 | 1.6 | 1.6 | 0.5 | 1.6 | 400 |  | 
8 | CC1(C)S[C@@H]2[C@H](NC(=O)[C@H](N)c3ccccc3)C(=O)N2[C@H]1C(=O)O [Ampicillin] | >400 | >400 | >400 |  | >64 | >64 | 1.6-3.2 | 1.6-3.2 | 1.6-3.2 | 8 | 1.6-3.2 | >400 |  | 
9 | NC[C@@H]1CC[C@@H](N)[C@@H](O[C@H]2[C@H](O)[C@@H](O[C@H]3O[C@H](CO)[C@@H](O)[C@H](N)[C@H]3O)[C@H](N)C[C@@H]2N)O1 [Dibekacin] |  |  | 400 |  |  |  |  |  |  |  | 3.2 |  |  | 
10 | C[C@H]1[C@H](NC(=O)/C(=N\OC(C)(C)C(=O)O)c2csc(N)n2)C(=O)N1S(=O)(=O)O [Aztreonam] | ≦0.05 | ≦0.05 | 0.3 |  |  | <0.06 | 0.1 | 0.1 | 0.1 | 0.06 | 0.1 | ≦0.05 |  | 
11 | CO[C@H]1[C@H](OC(=O)c2ccc(C)[nH]2)[C@H](O)[C@@H](Oc2ccc3c(O)c(NC(=O)c4c[nH]c(C(=O)Nc5c(O)c6ccc(O[C@H]7OC(C)(C)[C@@H](OC)[C@H](OC(=O)c8ccc(C)[nH]8)[C@@H]7O)c(C)c6oc5=O)c4C)c(=O)oc3c2C)OC1(C)C [Coumermycin A1] | 6.3 | 3.2 | 6.3 | hypersensitive | 4 | 64 | 12.5 | 12.5 | 12.5 | >64 | 12.5 | 3.2 |  | 
12 | CN(C)[C@@H]1C(O)=C(C(N)=O)C(=O)[C@@]2(O)C(O)=C3C(=O)c4c(O)cccc4[C@@](C)(O)[C@H]3C[C@@H]12 [Tetracycline] | 100 |  | >400 |  | 64 | >64 | 0.4-3.2 | 0.4-3.2 | 0.4-3.2 | 2 | 0.4-3.2 |  | 100 | 100
13 | Actinomycin C | 50 | 100 | 200 |  | >256 | >256 | 50 | 50 | 50 | 256 | 50 | 25.0 |  | 
14 | Bleomycin | 400 | 0.8 | 200 | hypersensitive | 8 | >64 | ≦0.2-0.4 | ≦0.2-0.4 | ≦0.2-0.4 | 2 | ≦0.2-0.4 | ≦0.4 |  | 
